From PubChem BioAssay AID220 (DTP/NCI, 2004)
“And” between values parts separate entries of the source, which are not always exact repeats. Equal values may be shown once. Inconclusive results are not listed.

Test system: CD8F1 mice, subcutaneous mammary adenocarcinoma, T/C%
Test: NCI In Vivo Anticancer Drug Screen. Data for tumor model Mammary Adenocarcinoma CD8F1 (subcutaneous) in CD8F1
Conditions: higher = larger tumour
Method in brief: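 Tumor-bearing mice, transplantable model; readout survival or tumor size; value = treated (T) / vehicle control (C).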

[1] = endpoint: median tumor weight change, dose: 125.0 mg/kg/injection, schedule: Q01DX001 (ip), vehicle: saline with Tween-80
[2] = endpoint: median tumor weight change, dose: 250.0 mg/kg/injection, schedule: Q01DX001 (ip), vehicle: saline with Tween-80
[3] = endpoint: median tumor weight change, dose: 500.0 mg/kg/injection, schedule: Q01DX001 (ip), vehicle: saline with Tween-80
[4] = endpoint: median tumor weight change, dose: 1000.0 mg/kg/injection, schedule: Q01DX001 (ip), vehicle: saline with Tween-80
[5] = endpoint: median tumor weight change, dose: 62.5 mg/kg/injection, schedule: Q01DX001 (ip), vehicle: saline with Tween-80
[6] = endpoint: median tumor weight (est.), dose: 2.0 mg/kg/injection, schedule: Q07DX005 (ip), vehicle: saline
[7] = endpoint: median tumor weight change, dose: 125.0 mg/kg/injection, schedule: Q01DX001 (ip), vehicle: Klucel (hydroxypropylcellulose) (HPC)
[8] = endpoint: median tumor weight change, dose: 250.0 mg/kg/injection, schedule: Q01DX001 (ip), vehicle: Klucel (hydroxypropylcellulose) (HPC)

O=C(c1cccnc1)c1cc(-c2ccccn2)c(=O)n2ccccc12
T/C [1]: 182 % of control | T/C [2]: 77 % of control | T/C [3]: 78 % of control | T/C [4]: 56 % of control | T/C (endpoint: median tumor weight change, dose: 2000.0 mg/kg/injection, schedule: Q01DX001 (ip), vehicle: saline with Tween-80): 110 % of control

O=C1[C@H]2CCC[C@H]2[C@H]2CCC[C@@H]12
T/C [5]: 51 % of control | T/C [1]: 44 % of control | T/C [2]: 60 % of control | T/C [3]: 35 % of control

C#CCNC1=C(C)C(=O)C2=C(C1=O)[C@H](COC(N)=O)[C@]1(OC)[C@@H]3N[C@@H]3CN21
T/C (endpoint: median tumor weight change, dose: 16.0 mg/kg/injection, schedule: Q01DX001 (ip), vehicle: distilled water + Tween-80): 75 % of control | T/C (endpoint: median tumor weight change, dose: 31.0 mg/kg/injection, schedule: Q01DX001 (ip), vehicle: distilled water + Tween-80): 27 % of control

NC(Cc1ccc(N(CCCl)Cc2ccccc2)cc1)C(=O)O (stereo unspecified)
T/C (endpoint: median tumor weight (est.), dose: 6.25 mg/kg/injection, schedule: Q07DX005 (ip), vehicle: distilled water + Tween-80): 84 % of control | T/C (endpoint: median tumor weight (est.), dose: 12.5 mg/kg/injection, schedule: Q07DX005 (ip), vehicle: distilled water + Tween-80): 60 % of control | T/C (endpoint: median tumor weight (est.), dose: 25.0 mg/kg/injection, schedule: Q07DX005 (ip), vehicle: distilled water + Tween-80): 79 % of control | T/C (endpoint: median tumor weight (est.), dose: 50.0 mg/kg/injection, schedule: Q07DX005 (ip), vehicle: distilled water + Tween-80): 25 % of control

COC(C(=O)C(O)C(C)O)C1Cc2cc3cc(OC4CC(OC(C)=O)C(OC5CC(O)C(OC)C(C)O5)C(C)O4)cc(O)c3c(O)c2C(=O)C1OC1CC(OC2CC(OC3CC(C)(O)C(OC(=O)C(C)C)C(C)O3)C(O)C(C)O2)C(O)C(C)O1 (stereo unspecified)
T/C (endpoint: median tumor weight (est.), dose: 0.5 mg/kg/injection, schedule: Q07DX005 (ip), vehicle: saline): 76 % of control | T/C (endpoint: median tumor weight (est.), dose: 1.0 mg/kg/injection, schedule: Q07DX005 (ip), vehicle: saline): 30 % of control | T/C [6]: 34 % of control

COc1cccc2c1C(=O)c1c(O)c3c(c(O)c1C2=O)C[C@@](O)(/C(CO)=N/NC(=O)c1ccc(Cl)c(Cl)c1)C[C@@H]3OC1CC(N)C(O)C(C)O1 (stereo partly specified)
T/C (endpoint: mean tumor weight, dose: 0.75 mg/kg/injection, schedule: Q07DX005 (ip), vehicle: saline): 106 % of control | T/C (endpoint: mean tumor weight, dose: 1.5 mg/kg/injection, schedule: Q07DX005 (ip), vehicle: saline): 161 % of control | T/C (endpoint: mean tumor weight, dose: 1.5 mg/kg/injection, schedule: Q07DX006 (ip), vehicle: saline): 118 % of control | T/C (endpoint: mean tumor weight, dose: 3.0 mg/kg/injection, schedule: Q07DX005 (ip), vehicle: saline): 75 % of control | T/C (endpoint: mean tumor weight, dose: 3.0 mg/kg/injection, schedule: Q07DX006 (ip), vehicle: saline): 71 % of control | T/C (endpoint: mean tumor weight, dose: 4.0 mg/kg/injection, schedule: Q07DX004 (ip), vehicle: saline): 86 % of control | T/C (endpoint: mean tumor weight, dose: 8.0 mg/kg/injection, schedule: Q07DX004 (ip), vehicle: saline): 96 % of control | T/C (endpoint: mean tumor weight, dose: 12.0 mg/kg/injection, schedule: Q07DX005 (ip), vehicle: saline): 30 % of control | T/C (endpoint: mean tumor weight, dose: 12.0 mg/kg/injection, schedule: Q07DX006 (ip), vehicle: saline): 32 % of control | T/C (endpoint: mean tumor weight, dose: 16.0 mg/kg/injection, schedule: Q07DX004 (ip), vehicle: saline): 17 % of control | T/C (endpoint: median tumor weight (est.), dose: 2.0 mg/kg/injection, schedule: Q07DX005 (ip), vehicle: suspension in saline): 60 % of control | T/C (endpoint: median tumor weight (est.), dose: 4.0 mg/kg/injection, schedule: Q07DX005 (ip), vehicle: suspension in saline): 150 % of control | T/C (endpoint: median tumor weight (est.), dose: 8.0 mg/kg/injection, schedule: Q07DX005 (ip), vehicle: suspension in saline): 41 % of control | T/C (endpoint: median tumor weight (est.), dose: 16.0 mg/kg/injection, schedule: Q07DX005 (ip), vehicle: suspension in saline): 25 % of control

O=C(Oc1ccccc1)c1cc(O)c(O)c(O)c1
T/C (endpoint: median tumor weight change, dose: 150.0 mg/kg/injection, schedule: Q01DX001 (ip), vehicle: suspension in saline): 98 % of control | T/C (endpoint: median tumor weight change, dose: 300.0 mg/kg/injection, schedule: Q01DX001 (ip), vehicle: suspension in saline): 111 % of control

COc1cc(C)c(C2NC(=O)c3ccccc3N2)cc1C (stereo unspecified)
T/C [7]: 69 % of control | T/C [8]: 76 % of control | T/C (endpoint: median tumor weight change, dose: 500.0 mg/kg/injection, schedule: Q01DX001 (ip), vehicle: Klucel (hydroxypropylcellulose) (HPC)): 91 % of control | T/C (endpoint: median tumor weight change, dose: 1000.0 mg/kg/injection, schedule: Q01DX001 (ip), vehicle: Klucel (hydroxypropylcellulose) (HPC)): 107 % of control | T/C (endpoint: median tumor weight change, dose: 2000.0 mg/kg/injection, schedule: Q01DX001 (ip), vehicle: Klucel (hydroxypropylcellulose) (HPC)): 84 % of control

COc1cc([C@@H]2c3cc4c(c(O)c3C[C@H]3COC(=O)[C@@H]32)OCO4)cc(OC)c1OC
T/C [6]: 45 % of control | T/C (endpoint: median tumor weight (est.), dose: 4.0 mg/kg/injection, schedule: Q07DX005 (ip), vehicle: saline): 222 % of control | T/C (endpoint: median tumor weight (est.), dose: 8.0 mg/kg/injection, schedule: Q07DX005 (ip), vehicle: saline): 86 % of control | T/C (endpoint: median tumor weight (est.), dose: 16.0 mg/kg/injection, schedule: Q07DX005 (ip), vehicle: saline): 96 % of control

COC(=O)C[C@](O)(CCC(C)(C)O)C(=O)O[C@@H]1C(OC)=C[C@]23CCCN2CCc2cc4c(cc2[C@H]13)OCO4
T/C (endpoint: median tumor weight change, dose: 1.25 mg/kg/injection, schedule: Q01DX001 (ip), vehicle: saline): 80 % of control and 96 % of control | T/C (endpoint: median tumor weight change, dose: 2.5 mg/kg/injection, schedule: Q01DX001 (ip), vehicle: saline): 89 % of control and 94 % of control | T/C (endpoint: median tumor weight change, dose: 10.0 mg/kg/injection, schedule: Q01DX001 (ip), vehicle: saline): 68 % of control

O=c1ccc2ccccc2o1
T/C [7]: 90 % of control

Nc1nc(N)c2cc(S(=O)(=O)c3ccccc3)ccc2n1
T/C [5]: 102 % of control | T/C [1]: 109 % of control | T/C [2]: 67 % of control | T/C [3]: 42 % of control | T/C [4]: 40 % of control

COc1ccc(/C=C/C(=O)c2cc(C(=O)O)c(OC)cc2OC)cc1OC
T/C (endpoint: median tumor weight (est.), dose: 12.5 mg/kg/injection, schedule: Q07DX005 (ip), vehicle: saline): 326 % of control | T/C (endpoint: median tumor weight (est.), dose: 25.0 mg/kg/injection, schedule: Q07DX005 (ip), vehicle: saline): 117 % of control | T/C (endpoint: median tumor weight (est.), dose: 50.0 mg/kg/injection, schedule: Q07DX005 (ip), vehicle: saline): 192 % of control | T/C (endpoint: median tumor weight (est.), dose: 50.0 mg/kg/injection, schedule: Q07DX005 (ip), vehicle: suspension in saline): 85 % of control | T/C (endpoint: median tumor weight (est.), dose: 100.0 mg/kg/injection, schedule: Q07DX005 (ip), vehicle: saline): 84 % of control | T/C (endpoint: median tumor weight (est.), dose: 100.0 mg/kg/injection, schedule: Q07DX005 (ip), vehicle: suspension in saline): 107 % of control | T/C (endpoint: median tumor weight (est.), dose: 200.0 mg/kg/injection, schedule: Q07DX005 (ip), vehicle: saline): 42 % of control | T/C (endpoint: median tumor weight (est.), dose: 200.0 mg/kg/injection, schedule: Q07DX005 (ip), vehicle: suspension in saline): 53 % of control

CN(C)C1C(=O)C(C(=O)NP(=O)(NCCCO)N(CCCl)CCCl)=C(O)C2(O)C(=O)C3=C(O)c4c(O)cccc4C(C)(O)C3CC12 (stereo unspecified)
T/C [2]: 46 % of control and 69 % of control | T/C [3]: 21 % of control

CCCCN(CCCC)C(Cl)=Nc1ccccc1
T/C [7]: 82 % of control and 107 % of control

CC(=O)Oc1c[nH]c(=O)[nH]c1=O
T/C [1]: 62 % of control | T/C [2]: 84 % of control | T/C [3]: 32 % of control | T/C [4]: 32 % of control

CC(=O)OCC1OC(OC2=C(CC=C(C)C)C(=O)c3ccccc3C2=O)C(OC(C)=O)C(OC(C)=O)C1OC(C)=O (stereo unspecified)
T/C (endpoint: median tumor weight (est.), dose: 12.5 mg/kg/injection, schedule: Q07DX005 (ip), vehicle: Klucel (hydroxypropylcellulose) (HPC)): 75 % of control and 98 % of control | T/C (endpoint: median tumor weight (est.), dose: 25.0 mg/kg/injection, schedule: Q07DX005 (ip), vehicle: Klucel (hydroxypropylcellulose) (HPC)): 69 % of control | T/C (endpoint: median tumor weight (est.), dose: 100.0 mg/kg/injection, schedule: Q07DX005 (ip), vehicle: Klucel (hydroxypropylcellulose) (HPC)): 113 % of control | T/C (endpoint: median tumor weight (est.), dose: 200.0 mg/kg/injection, schedule: Q07DX005 (ip), vehicle: Klucel (hydroxypropylcellulose) (HPC)): 107 % of control | T/C (endpoint: median tumor weight (est.), dose: 400.0 mg/kg/injection, schedule: Q07DX005 (ip), vehicle: Klucel (hydroxypropylcellulose) (HPC)): 79 % of control

Cc1c2c(c(O)c3c(O)cccc13)C(=O)C1(O)C(O)=C(C(=O)NCNc3ccc(C(N)=O)cn3)C(=O)C(N(C)C)C1C2 (stereo unspecified)
T/C (endpoint: median tumor weight change, dose: 15.62 mg/kg/injection, schedule: Q01DX001 (ip), vehicle: saline): 82 % of control | T/C (endpoint: median tumor weight change, dose: 31.25 mg/kg/injection, schedule: Q01DX001 (ip), vehicle: saline): 70 % of control | T/C (endpoint: median tumor weight change, dose: 62.5 mg/kg/injection, schedule: Q01DX001 (ip), vehicle: saline): 43 % of control | T/C (endpoint: median tumor weight change, dose: 125.0 mg/kg/injection, schedule: Q01DX001 (ip), vehicle: saline): 34 % of control

O=CC(O)C(O)C(O)C(O)C(=O)O.[NH-]C1CCCCC1[NH-].[Pt+2] (stereo unspecified)
T/C (endpoint: median tumor weight (est.), dose: 6.25 mg/kg/injection, schedule: Q07DX005 (ip), vehicle: suspension in saline): 48 % of control | T/C (endpoint: median tumor weight (est.), dose: 12.5 mg/kg/injection, schedule: Q07DX005 (ip), vehicle: suspension in saline): 7 % of control and 32 % of control | T/C (endpoint: median tumor weight (est.), dose: 25.0 mg/kg/injection, schedule: Q07DX005 (ip), vehicle: suspension in saline): 6 % of control

Nc1ncnc2c1nnn2C1OC(CO)C(O)C1O (stereo unspecified)
T/C (endpoint: median tumor weight change, dose: 62.5 mg/kg/injection, schedule: Q01DX001 (ip), vehicle: Klucel (hydroxypropylcellulose) (HPC)): 111 % of control | T/C [8]: 39 % of control and 40 % of control
